Measurements: patent US12202818B2, “Compounds and methods for CD73 modulation and indications therefor” (Opna Bio SA, priority 2020, dated 2025)

Assays:
human CD73 = target: T1, human CD73 (Homo sapiens, UniProt P21589); experiment: Inhibitor activity against CD73 in cell based assay (CD73 expressing CHO-K1 cells); details: CHO-K1 cells expressing human CD73, 150 μM AMP, 4 hours of incubation; read-out: CHO-K1 CELL_VARIANT: CD73 IC50
T1 construct: expressed in transfected cells
T1 sequence (P21589 27-549): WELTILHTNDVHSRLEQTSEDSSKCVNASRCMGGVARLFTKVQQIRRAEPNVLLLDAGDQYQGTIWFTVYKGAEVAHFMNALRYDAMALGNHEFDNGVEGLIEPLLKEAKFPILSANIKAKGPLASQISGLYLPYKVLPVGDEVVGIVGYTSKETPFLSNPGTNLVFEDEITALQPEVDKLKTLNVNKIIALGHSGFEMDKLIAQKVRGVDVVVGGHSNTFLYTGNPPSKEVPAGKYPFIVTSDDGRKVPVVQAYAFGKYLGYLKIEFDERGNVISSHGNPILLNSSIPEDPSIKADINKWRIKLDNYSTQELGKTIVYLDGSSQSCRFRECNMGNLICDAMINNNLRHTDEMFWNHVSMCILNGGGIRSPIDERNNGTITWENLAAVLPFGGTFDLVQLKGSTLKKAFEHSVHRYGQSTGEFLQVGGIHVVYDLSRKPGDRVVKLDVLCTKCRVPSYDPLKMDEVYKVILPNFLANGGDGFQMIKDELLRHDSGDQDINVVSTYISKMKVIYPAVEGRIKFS
How it was run: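 Stable human CD73 CHO-K1 cells, 1×10^4/well, exposed to an 8-point 1:3 compound series (top 10 μM, 0.2% DMSO) plus 150 μM AMP for 4 h. Remaining AMP in the supernatant was read by CellTiter-Glo 2.0 luminescence with 1 μM ATP after 30 min at room temperature. IC50 came from nonlinear regression of % inhibition against cell and media-only controls.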

[1] = target: T2, Human CD73 (amino acid residues 27-549) (Homo sapiens, UniProt P21589); experiment: CD73 enzymatic assay (luciferase-based indirect assay, CellTiter-Glo); type: biochemical; details: 0.4 nM CD73, 150 μM AMP, 1 hour at room temperature
T2 construct: Human CD73 (amino acid residues 27-549); His tag (N); made in house; host or cells: E. coli
T2 sequence (P21589 27-549): T1 sequence (P21589 27-549)
How it was run: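 N-His human CD73 (27-549) expressed in E. coli, 0.4 nM, incubated with 150 μM AMP and compound in 50 mM HEPES pH 7.4, 0.01% Tween-20, 1 h at RT. Remaining AMP read via CellTiter-Glo luminescence with 1 μM ATP after 30 min; IC50 from nonlinear regression of % inhibition.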

| Structure (SMILES) | IC50 (human CD73) | IC50 [1] |
| --- | --- | --- |
| Cc1nn(CCN2CCCC2)c(C)c1-c1cc(F)nc(O[C@@H]2CCN(c3cn[nH]c(=O)c3Cl)C2)c1 [P-0159, (R)-4-chloro-5-(3-((4-(3,5-dimethyl-1-(2-(pyrrolidin-1-yl)ethyl)-1H-pyrazol-4-yl)-6-fluoropyridin-2-yl)oxy)pyrrolidin-1-yl)pyridazin-3(2H)-one] | 0.001 to 10 µM | 0.001 to 10 µM |
| Cc1noc(C)c1-c1cncc(O[C@@H]2CCN(c3cn[nH]c(=O)c3Cl)C2)c1 [P-0162, (R)-4-chloro-5-(3-((5-(3,5-dimethylisoxazol-4-yl)pyridin-3-yl)oxy)pyrrolidin-1-yl)pyridazin-3(2H)-one] | 0.001 to 10 µM | 0.001 to 10 µM |
| O=c1[nH]ncc(N2CC[C@@H](Oc3cc(C4CCCC4)ccn3)C2)c1Cl [P-0073, (R)-4-chloro-5-(3-((4-cyclopentylpyridin-2-yl)oxy)pyrrolidin-1-yl)pyridazin-3(2H)-one] | 0.001 to 10 µM | 0.001 to 10 µM |
| COCc1noc(C)c1-c1ccnc(O[C@@H]2CCN(c3cn[nH]c(=O)c3Cl)C2)c1 [P-0150, (R)-4-chloro-5-(3-((4-(3-(methoxymethyl)-5-methylisoxazol-4-yl)pyridin-2-yl)oxy)pyrrolidin-1-yl)pyridazin-3(2H)-one] | 0.001 to 10 µM | 0.001 to 10 µM |
| O=c1[nH]ncc(N2CC[C@@H](Oc3cc(-c4ccc(S(=O)(=O)NC5CC5)cc4F)ccn3)C2)c1Cl [P-0234, (R)-4-(2-((1-(5-chloro-6-oxo-1,6-dihydropyridazin-4-yl)pyrrolidin-3-yl)oxy)pyridin-4-yl)-N-cyclopropyl-3-fluorobenzenesulfonamide] | 0.001 to 10 µM | 0.001 to 10 µM |
| Cc1nn(CC2CC(C#N)C2)c(C)c1-c1cc(O[C@@H]2CCN(c3cn[nH]c(=O)c3Cl)C2)ncn1 (stereo partly drawn) [P-0052, (R)-3-((4-(6-((1-(5-chloro-6-oxo-1,6-dihydropyridazin-4-yl)pyrrolidin-3-yl)oxy)pyrimidin-4-yl)-3,5-dimethyl-1H-pyrazol-1-yl)methyl)cyclobutane-1-carbonitrile] | 10 to 100 µM | 0.001 to 10 µM |
| Cc1nn(C)c(C)c1-c1cc(F)nc(O[C@H]2CN(c3cn[nH]c(=O)c3Cl)C[C@@H]2F)c1 [P-0191, 4-chloro-5-((3S,4S)-3-fluoro-4-((6-fluoro-4-(1,3,5-trimethyl-1H-pyrazol-4-yl)pyridin-2-yl)oxy)pyrrolidin-1-yl)pyridazin-3(2H)-one] | 0.001 to 10 µM | 0.001 to 10 µM |
| O=C(CO)N1CCC(c2ccnc(O[C@@H]3CCN(c4cn[nH]c(=O)c4Cl)C3)c2)CC1 [P-0016, (R)-4-chloro-5-(3-((4-(1-(2-hydroxyacetyl)piperidin-4-yl)pyridin-2-yl)oxy)pyrrolidin-1-yl)pyridazin-3(2H)-one] | 0.001 to 10 µM | 0.001 to 10 µM |
| Cc1nn(CC2CC2)c(C)c1-c1cc(F)nc(O[C@@H]2CCN(c3cn[nH]c(=O)c3Cl)C2)c1 [P-0152, (R)-4-chloro-5-(3-((4-(1-(cyclopropylmethyl)-3,5-dimethyl-1H-pyrazol-4-yl)-6-fluoropyridin-2-yl)oxy)pyrrolidin-1-yl)pyridazin-3(2H)-one] | 0.001 to 10 µM | 0.001 to 10 µM |
| O=c1[nH]ncc(N2CC[C@@H](Oc3cc(C4=CCNC4)ccn3)C2)c1Cl [P-0032, (R)-4-chloro-5-(3-((4-(2,5-dihydro-1H-pyrrol-3-yl)pyridin-2-yl)oxy)pyrrolidin-1-yl)pyridazin-3(2H)-one] | 0.001 to 10 µM | 0.001 to 10 µM |
| Cc1noc(C)c1-c1cc(O[C@H]2CN(c3cnn(CCO)c(=O)c3Cl)C[C@@H]2F)ncn1 [P-0145, 4-chloro-5-((3S,4S)-3-((6-(3,5-dimethylisoxazol-4-yl)pyrimidin-4-yl)oxy)-4-fluoropyrrolidin-1-yl)-2-(2-hydroxyethyl)pyridazin-3(2H)-one] | 0.001 to 10 µM | 0.001 to 10 µM |
| O=c1[nH]ncc(N2CC[C@@H](Oc3ncccc3NC3CCC(F)(F)CC3)C2)c1Cl [P-0110, (R)-4-chloro-5-(3-((3-((4,4-difluorocyclohexyl)amino)pyridin-2-yl)oxy)pyrrolidin-1-yl)pyridazin-3(2H)-one] | 0.001 to 10 µM | 0.001 to 10 µM |
| Cc1nn(CC2CCC2)c(C)c1-c1cc(F)nc(O[C@@H]2CCN(c3cn[nH]c(=O)c3Cl)C2)c1 [P-0183, (R)-4-chloro-5-(3-((4-(1-(cyclobutylmethyl)-3,5-dimethyl-1H-pyrazol-4-yl)-6-fluoropyridin-2-yl)oxy)pyrrolidin-1-yl)pyridazin-3(2H)-one] | 0.001 to 10 µM | 0.001 to 10 µM |
| O=c1[nH]ncc(N2CC[C@@H](Oc3cc(C4CCN(CC(F)(F)F)CC4)ccn3)C2)c1Cl [P-0048, (R)-4-chloro-5-(3-((4-(1-(2,2,2-trifluoroethyl)piperidin-4-yl)pyridin-2-yl)oxy)pyrrolidin-1-yl)pyridazin-3(2H)-one] | 0.001 to 10 µM | 0.001 to 10 µM |

Further lines, results first:

| IC50 (human CD73) | IC50 [1] | Structure (SMILES) |
| --- | --- | --- |
| 0.001 to 10 µM | 0.001 to 10 µM | Cc1nn(CC2(C)COC2)c(C)c1-c1cc(F)nc(O[C@@H]2CCN(c3cn[nH]c(=O)c3Cl)C2)c1 [P-0184, (R)-4-chloro-5-(3-((4-(3,5-dimethyl-1-((3-methyloxetan-3-yl)methyl)-1H-pyrazol-4-yl)-6-fluoropyridin-2-yl)oxy)pyrrolidin-1-yl)pyridazin-3(2H)-one] |
| 10 to 100 µM | 0.001 to 10 µM | CC(=O)N1CCN(c2ccnc(O[C@@H]3CCN(c4cn[nH]c(=O)c4Cl)C3)c2)[C@@H](C)C1 [P-0103, 5-((R)-3-((4-((S)-4-acetyl-2-methylpiperazin-1-yl)pyridin-2-yl)oxy)pyrrolidin-1-yl)-4-chloropyridazin-3(2H)-one] |
| 10 to 100 µM | 0.001 to 10 µM | O=c1[nH]ncc(N2CC[C@@H](Oc3cc(-c4ccnc(O[C@@H]5CCN(c6cn[nH]c(=O)c6Cl)C5)c4)ccn3)C2)c1Cl [P-0215, 5,5′-((3R,3′R)-([4,4′-bipyridine]-2,2′-diylbis(oxy))bis(pyrrolidine-3,1-diyl))bis(4-chloropyridazin-3(2H)-one)] |
| 10 to 100 µM | 0.001 to 10 µM | O=C(O)Cc1ccc(-c2ccnc(O[C@@H]3CCN(c4cn[nH]c(=O)c4Cl)C3)c2)c(F)c1 [P-0219, (R)-2-(4-(2-((1-(5-chloro-6-oxo-1,6-dihydropyridazin-4-yl)pyrrolidin-3-yl)oxy)pyridin-4-yl)-3-fluorophenyl)acetic acid] |
| 0.001 to 10 µM | 0.001 to 10 µM | Cc1nn(C)c(C)c1-c1cc(O[C@@H]2CCN(c3cnn(CCO)c(=O)c3Cl)C2)ccn1 [P-0135, (R)-4-chloro-2-(2-hydroxyethyl)-5-(3-((2-(1,3,5-trimethyl-1H-pyrazol-4-yl)pyridin-4-yl)oxy)pyrrolidin-1-yl)pyridazin-3(2H)-one] |
| 0.001 to 10 µM | 0.001 to 10 µM | Cc1nn(CC2CCO2)c(C)c1-c1ccnc(O[C@@H]2CCN(c3cn[nH]c(=O)c3Cl)C2)c1 (stereo partly drawn) [P-0086, 4-chloro-5-((3R)-3-((4-(3,5-dimethyl-1-(oxetan-2-ylmethyl)-1H-pyrazol-4-yl)pyridin-2-yl)oxy)pyrrolidin-1-yl)pyridazin-3(2H)-one] |
| 0.001 to 10 µM | 0.001 to 10 µM | Cc1cc(NS(=O)(=O)C2CC2)ccc1-c1ccnc(O[C@@H]2CCN(c3cn[nH]c(=O)c3Cl)C2)c1 [P-0210, (R)-N-(4-(2-((1-(5-chloro-6-oxo-1,6-dihydropyridazin-4-yl)pyrrolidin-3-yl)oxy)pyridin-4-yl)-3-methylphenyl)cyclopropane-sulfonamide] |
| 0.001 to 10 µM | 0.001 to 10 µM | Cc1noc(C)c1-c1cc(O[C@H]2CN(c3cnn(CCO)c(=O)c3Cl)C[C@@H]2F)ccn1 [P-0120, 4-chloro-5-((3S,4S)-3-((2-(3,5-dimethylisoxazol-4-yl)pyridin-4-yl)oxy)-4-fluoropyrrolidin-1-yl)-2-(2-hydroxyethyl)pyridazin-3(2H)-one] |
| 0.001 to 10 µM | 0.001 to 10 µM | Cc1nn(C)c(C)c1-c1cc(O[C@H]2CN(c3cn[nH]c(=O)c3Cl)C[C@@H]2F)ncn1 [P-0147, 4-chloro-5-((3S,4S)-3-fluoro-4-((6-(1,3,5-trimethyl-1H-pyrazol-4-yl)pyrimidin-4-yl)oxy)pyrrolidin-1-yl)pyridazin-3(2H)-one] |
| 0.001 to 10 µM | 0.001 to 10 µM | O=C(Nc1ccc(-c2ccnc(O[C@@H]3CCN(c4cn[nH]c(=O)c4Cl)C3)c2)c(F)c1)C1CCCC1 [P-0206, (R)-N-(4-(2-((1-(5-chloro-6-oxo-1,6-dihydropyridazin-4-yl)pyrrolidin-3-yl)oxy)pyridin-4-yl)-3-fluorophenyl)cyclopentane-carboxamide] |
| 0.001 to 10 µM | 0.001 to 10 µM | Cn1ncc(Cl)c1-c1ccnc(O[C@@H]2CCN(c3cn[nH]c(=O)c3Cl)C2)c1 [P-0155, (R)-4-chloro-5-(3-((4-(4-chloro-1-methyl-1H-pyrazol-5-yl)pyridin-2-yl)oxy)pyrrolidin-1-yl)pyridazin-3(2H)-one] |
